Source: ChEMBL document CHEMBL1155809, “Design, synthesis, and antihepatocellular carcinoma activity of nitric oxide releasing derivatives of oleanolic acid” (J Med Chem, 2008)
Active and inactive are the calls of the source. The rule behind the calls is not given here.

Experiments:
HepG2 [1] = experiment: Cytotoxicity against human HepG2 cells assessed as cell death after 24 hrs by lactate dehydrogenase release assay; type: functional, cell-based
Hep 3B2 [2] = experiment: Cytotoxicity against human Hep3B cells assessed as cell death after 24 hrs by lactate dehydrogenase release assay; type: functional, cell-based
HepG2 [3] = experiment: Cytotoxicity against human HepG2 cells assessed as cell death at 1 uM after 24 hrs by lactate dehydrogenase release assay; type: functional
HepG2 [4] = experiment: Cytotoxicity against human HepG2 cells assessed as cell death at 0.001 uM after 24 hrs by lactate dehydrogenase release assay; type: functional
[5] = Cytotoxicity against human Hep3B cells assessed as cell death at 0.1 uM after 24 hrs by lactate dehydrogenase release assay; type: functional, Hep 3B2
[6] = Cytotoxicity against human Hep3B cells assessed as cell death at 0.001 uM after 24 hrs by lactate dehydrogenase release assay; type: functional, Hep 3B2
HepG2 [7] = experiment: Cytotoxicity against human HepG2 cells assessed as levels of nitric oxide production at 100 uM after 30 to 300 mins by colorimetric assay; type: functional, cell-based
PC-3 [8] = experiment: Cytotoxicity against human PC3 cells assessed as levels of nitric oxide production at 100 uM after 30 to 300 mins by colorimetric assay; type: functional, cell-based
PC-3 [9] = experiment: Cytotoxicity against human PC3 cells assessed as cell death by lactate dehydrogenase release assay; type: functional, cell-based
HepG2 [10] = experiment: Cytotoxicity against human HepG2 cells assessed as cell death at 0.1 uM after 24 hrs by lactate dehydrogenase release assay; type: functional
[11] = Cytotoxicity against human Hep3B cells assessed as cell death at 1 uM after 24 hrs by lactate dehydrogenase release assay; type: functional, Hep 3B2
HeLa [12] = experiment: Cytotoxicity against human HeLa cells assessed as cell death by lactate dehydrogenase release assay; type: functional, cell-based
[13] = Cytotoxicity against human Hep3B cells assessed as cell death at 0.01 uM after 24 hrs by lactate dehydrogenase release assay; type: functional, Hep 3B2
HEK293 [14] = experiment: Cytotoxicity against human HEK293 cells assessed as levels of nitric oxide production at 100 uM after 30 to 300 mins by colorimetric assay; type: functional, cell-based
HEK293 [15] = experiment: Cytotoxicity against HEK293 cells assessed as cell death by lactate dehydrogenase release assay; type: functional, cell-based; conditions: Homo sapiens
MCF7 [16] = experiment: Cytotoxicity against human MCF7 cells assessed as cell death by lactate dehydrogenase release assay; type: functional, cell-based
MCF7 [17] = experiment: Cytotoxicity against human MCF7 cells assessed as levels of nitric oxide production at 100 uM after 30 to 300 mins by colorimetric assay; type: functional, cell-based
Hep 3B2 [18] = experiment: Cytotoxicity against human Hep3B cells assessed as levels of nitric oxide production at 100 uM after 30 to 300 mins by colorimetric assay; type: functional, cell-based
HeLa [19] = experiment: Cytotoxicity against human HeLa cells assessed as levels of nitric oxide production at 100 uM after 30 to 300 mins by colorimetric assay; type: functional, cell-based
HepG2 [20] = experiment: Cytotoxicity against human HepG2 cells assessed as cell death at 0.01 uM after 24 hrs by lactate dehydrogenase release assay; type: functional

Compound: CC(CCOc1no[n+]([O-])c1S(=O)(=O)c1ccccc1)OC(=O)CCC(=O)O[C@H]1CC[C@]2(C)[C@H]3CC=C4[C@@H]5CC(C)(C)CC[C@]5(C(=O)OCc5ccccc5)CC[C@@]4(C)[C@]3(C)CC[C@H]2C1(C)C (some centres not stated)
- Activity (HepG2 [1]): inactive
- Activity (Hep 3B2 [2]): inactive

Compound: CC1(C)CC[C@]2(C(=O)O)CC[C@]3(C)C(=CC[C@@H]4[C@@]5(C)CC[C@H](OC(=O)CCC(=O)OCc6ccc(OCc7c(-c8ccccc8)no[n+]7[O-])cc6)C(C)(C)[C@@H]5CC[C@]43C)[C@@H]2C1
- Activity (HepG2 [1]): inactive
- Activity (Hep 3B2 [2]): inactive

Compound: CC1(C)CC[C@]2(C(=O)OCc3c(-c4ccccc4)no[n+]3[O-])CC[C@]3(C)C(=CC[C@@H]4[C@@]5(C)CC[C@H](OC(=O)C(F)(F)F)C(C)(C)[C@@H]5CC[C@]43C)[C@@H]2C1
- Activity (HepG2 [1]): inactive
- Activity (Hep 3B2 [2]): inactive

Compound: CCOC(=O)[C@]12CCC(C)(C)C[C@H]1C1=CC[C@@H]3[C@@]4(C)CC[C@H](OC(=O)CCC(=O)OCc5cccc(OCc6c(-c7ccccc7)no[n+]6[O-])c5)C(C)(C)[C@@H]4CC[C@@]3(C)[C@]1(C)CC2
- Activity (HepG2 [1]): inactive
- Activity (Hep 3B2 [2]): inactive

Compound: CC1(C)CC[C@]2(C(=O)OCc3cccc(OCc4c(-c5ccccc5)no[n+]4[O-])c3)CC[C@]3(C)C(=CC[C@@H]4[C@@]5(C)CC[C@H](OC(=O)C(F)(F)F)C(C)(C)[C@@H]5CC[C@]43C)[C@@H]2C1
- Activity (HepG2 [1]): inactive
- Activity (Hep 3B2 [2]): inactive

Compound: CC1(C)CC[C@]2(C(=O)OCc3c(-c4ccccc4)no[n+]3[O-])CC[C@]3(C)C(=CC[C@@H]4[C@@]5(C)CC[C@H](O)C(C)(C)[C@@H]5CC[C@]43C)[C@@H]2C1
- Activity (HepG2 [1]): inactive
- Activity (Hep 3B2 [2]): inactive

Compound: CC1(C)CC[C@]2(C(=O)O)CC[C@]3(C)C(=CC[C@@H]4[C@@]5(C)CC[C@H](OC(=O)CCC(=O)OCCCCOc6no[n+]([O-])c6S(=O)(=O)c6ccccc6)C(C)(C)[C@@H]5CC[C@]43C)[C@@H]2C1
- Activity (HepG2 [3]): 98.16%
- Activity (HepG2 [4]): 2.6%
- Activity [5]: 61.18%
- Activity [6]: 0%
- Activity (HepG2 [7]): Active
- Activity (PC-3 [8]): inactive
- Activity (PC-3 [9]): inactive
- Activity (HepG2 [10]): 56.35%
- Activity [11]: 100%
- Activity (HeLa [12]): inactive
- Activity [13]: 7.52%
- Activity (HEK293 [14]): inactive
- Activity (HEK293 [15]): inactive
- Activity (MCF7 [16]): inactive
- Activity (MCF7 [17]): inactive
- Activity (Hep 3B2 [18]): Active
- Activity (HeLa [19]): inactive
- Activity (HepG2 [20]): 10.96%

Compound: CC1(C)CC[C@]2(C(=O)OCC#CCOc3no[n+]([O-])c3S(=O)(=O)c3ccccc3)CC[C@]3(C)C(=CC[C@@H]4[C@@]5(C)CC[C@H](OC(=O)C(F)(F)F)C(C)(C)[C@@H]5CC[C@]43C)[C@@H]2C1
- Activity (HepG2 [1]): inactive
- Activity (Hep 3B2 [2]): inactive

Compound: CC1(C)CC[C@]2(C(=O)O)CC[C@]3(C)C(=CC[C@@H]4[C@@]5(C)CC[C@H](OC(=O)CCC(=O)OCc6ccc(Oc7no[n+]([O-])c7S(=O)(=O)c7ccccc7)cc6)C(C)(C)[C@@H]5CC[C@]43C)[C@@H]2C1
- Activity (HepG2 [1]): inactive
- Activity (Hep 3B2 [2]): inactive

Compound: CC1(C)CC[C@]2(C(=O)OCc3ccccc3)CC[C@]3(C)C(=CC[C@@H]4[C@@]5(C)CC[C@H](OC(=O)CCC(=O)OCc6c(-c7ccccc7)no[n+]6[O-])C(C)(C)[C@@H]5CC[C@]43C)[C@@H]2C1
- Activity (HepG2 [1]): inactive
- Activity (Hep 3B2 [2]): inactive

Compound: CC1(C)CC[C@]2(C(=O)O)CC[C@]3(C)C(=CC[C@@H]4[C@@]5(C)CC[C@H](OC(=O)CCC(=O)OCCOCCOc6no[n+]([O-])c6S(=O)(=O)c6ccccc6)C(C)(C)[C@@H]5CC[C@]43C)[C@@H]2C1
- Activity (HepG2 [3]): 95.63%
- Activity (HepG2 [4]): 2.7%
- Activity [5]: 56.43%
- Activity [6]: 0%
- Activity (HepG2 [7]): Active
- Activity (PC-3 [8]): inactive
- Activity (PC-3 [9]): inactive
- Activity (HepG2 [10]): 67.96%
- Activity [11]: 88.65%
- Activity (HeLa [12]): inactive
- Activity [13]: 9.78%
- Activity (HEK293 [14]): inactive
- Activity (HEK293 [15]): inactive
- Activity (MCF7 [16]): inactive
- Activity (MCF7 [17]): inactive
- Activity (Hep 3B2 [18]): Active
- Activity (HeLa [19]): inactive
- Activity (HepG2 [20]): 17.32%

Compound: CC1(C)CC[C@]2(C(=O)OCc3ccc(Oc4no[n+]([O-])c4S(=O)(=O)c4ccccc4)cc3)CC[C@]3(C)C(=CC[C@@H]4[C@@]5(C)CC[C@H](OC(=O)C(F)(F)F)C(C)(C)[C@@H]5CC[C@]43C)[C@@H]2C1
- Activity (HepG2 [1]): inactive
- Activity (Hep 3B2 [2]): inactive

Compound: CC1(C)CC[C@]2(C(=O)O)CC[C@]3(C)C(=CC[C@@H]4[C@@]5(C)CC[C@H](OC(=O)CCC(=O)OCc6cccc(OCc7c(-c8ccccc8)no[n+]7[O-])c6)C(C)(C)[C@@H]5CC[C@]43C)[C@@H]2C1
- Activity (HepG2 [1]): inactive
- Activity (Hep 3B2 [2]): inactive

Compound: CC1(C)CC[C@]2(C(=O)OCc3ccccc3)CC[C@]3(C)C(=CC[C@@H]4[C@@]5(C)CC[C@H](OC(=O)CCC(=O)OCc6cccc(Oc7no[n+]([O-])c7S(=O)(=O)c7ccccc7)c6)C(C)(C)[C@@H]5CC[C@]43C)[C@@H]2C1
- Activity (HepG2 [1]): inactive
- Activity (Hep 3B2 [2]): inactive

Compound: CC1(C)CC[C@]2(C(=O)OCCCCOc3no[n+]([O-])c3S(=O)(=O)c3ccccc3)CC[C@]3(C)C(=CC[C@@H]4[C@@]5(C)CC[C@H](OC(=O)C(F)(F)F)C(C)(C)[C@@H]5CC[C@]43C)[C@@H]2C1
- Activity (HepG2 [1]): inactive
- Activity (Hep 3B2 [2]): inactive

Compound: CCOC(=O)[C@]12CCC(C)(C)C[C@H]1C1=CC[C@@H]3[C@@]4(C)CC[C@H](OC(=O)CCC(=O)OCc5ccc(OCc6c(-c7ccccc7)no[n+]6[O-])cc5)C(C)(C)[C@@H]4CC[C@@]3(C)[C@]1(C)CC2
- Activity (HepG2 [1]): inactive
- Activity (Hep 3B2 [2]): inactive

Compound: CC1(C)CC[C@]2(C(=O)OCCOCCOc3no[n+]([O-])c3S(=O)(=O)c3ccccc3)CC[C@]3(C)C(=CC[C@@H]4[C@@]5(C)CC[C@H](OC(=O)C(F)(F)F)C(C)(C)[C@@H]5CC[C@]43C)[C@@H]2C1
- Activity (HepG2 [1]): inactive
- Activity (Hep 3B2 [2]): inactive

Compound: CC1(C)CC[C@]2(C(=O)OCc3ccccc3)CC[C@]3(C)C(=CC[C@@H]4[C@@]5(C)CC[C@H](OC(=O)CCC(=O)OCCCCOc6no[n+]([O-])c6S(=O)(=O)c6ccccc6)C(C)(C)[C@@H]5CC[C@]43C)[C@@H]2C1
- Activity (HepG2 [1]): inactive
- Activity (Hep 3B2 [2]): inactive

Compound: CCOC(=O)[C@]12CCC(C)(C)C[C@H]1C1=CC[C@@H]3[C@@]4(C)CC[C@H](OC(=O)CCC(=O)OCCOCCOc5no[n+]([O-])c5S(=O)(=O)c5ccccc5)C(C)(C)[C@@H]4CC[C@@]3(C)[C@]1(C)CC2
- Activity (HepG2 [1]): inactive
- Activity (Hep 3B2 [2]): inactive

Compound: CC1(C)CC[C@]2(C(=O)OCCCCOc3no[n+]([O-])c3S(=O)(=O)c3ccccc3)CC[C@]3(C)C(=CC[C@@H]4[C@@]5(C)CC[C@H](O)C(C)(C)[C@@H]5CC[C@]43C)[C@@H]2C1
- Activity (HepG2 [1]): inactive
- Activity (Hep 3B2 [2]): inactive

Compound: CC1(C)CC[C@]2(C(=O)OCc3ccc(OCc4c(-c5ccccc5)no[n+]4[O-])cc3)CC[C@]3(C)C(=CC[C@@H]4[C@@]5(C)CC[C@H](OC(=O)C(F)(F)F)C(C)(C)[C@@H]5CC[C@]43C)[C@@H]2C1
- Activity (HepG2 [1]): inactive
- Activity (Hep 3B2 [2]): inactive

Compound: CC1(C)CC[C@]2(C(=O)OCc3ccccc3)CC[C@]3(C)C(=CC[C@@H]4[C@@]5(C)CC[C@H](OC(=O)CCC(=O)OCc6ccc(Oc7no[n+]([O-])c7S(=O)(=O)c7ccccc7)cc6)C(C)(C)[C@@H]5CC[C@]43C)[C@@H]2C1
- Activity (HepG2 [1]): inactive
- Activity (Hep 3B2 [2]): inactive

Compound: CCOC(=O)[C@]12CCC(C)(C)C[C@H]1C1=CC[C@@H]3[C@@]4(C)CC[C@H](OC(=O)CCC(=O)OC(C)CCOc5no[n+]([O-])c5S(=O)(=O)c5ccccc5)C(C)(C)[C@@H]4CC[C@@]3(C)[C@]1(C)CC2 (some centres not stated)
- Activity (HepG2 [1]): inactive
- Activity (Hep 3B2 [2]): inactive

Compound: CC1(C)CC[C@]2(C(=O)OCc3cccc(OCc4c(-c5ccccc5)no[n+]4[O-])c3)CC[C@]3(C)C(=CC[C@@H]4[C@@]5(C)CC[C@H](O)C(C)(C)[C@@H]5CC[C@]43C)[C@@H]2C1
- Activity (HepG2 [1]): inactive
- Activity (Hep 3B2 [2]): inactive

Compound: CC1(C)CC[C@]2(C(=O)O)CC[C@]3(C)C(=CC[C@@H]4[C@@]5(C)CC[C@H](OC(=O)CCC(=O)Oc6cccc(OCc7c(-c8ccccc8)no[n+]7[O-])c6)C(C)(C)[C@@H]5CC[C@]43C)[C@@H]2C1
- Activity (HepG2 [1]): inactive
- Activity (Hep 3B2 [2]): inactive
